{"source": "patent US8303962B2", "about": "“Antibacterial and antifungal peptides” (C3 Jian, Inc., priority 2009, dated 2012)", "note": "Peptide text beside a SMILES is read from it.", "data": [{"tested_on": "Candida albicans", "experiment": "Peptide binding to Candida albicans", "settings": "tested at 3.13, 6.25, 12.5 and 25.0 μM in 1× PBS or 20 mM HEPES, 150 mM NaCl, 1 mM MgCl2, 0.1% CTAB", "method": "The peptides in Table 6 were tested for binding efficiency at 3.13, 6.25, 12.5 and 25.0 μM concentrations in 1× phosphate-buffered saline or 20 mM HEPES (4-(2-hydroxyethyl)-1-piperazineethanesulfonic acid), 150 mM sodium chloride, 1 mM magnesium chloride and 0.1% CTAB.", "values": [{"compound": "CC[C@H](C)[C@H](NC(=O)[C@H](C)NC(=O)[C@@H]1CCCN1C(=O)[C@H](Cc1ccccc1)NC(=O)[C@@H]1CCCN1C(=O)[C@H](CC(C)C)NC(=O)[C@@H](N)C(C)C)C(=O)N1CCC[C@H]1C(=O)N[C@@H](CC(C)C)C(=O)N[C@@H](CO)C(=O)N[C@@H](CCCNC(=N)N)C(=O)N[C@@H](CCCNC(=N)N)C(=O)N[C@@H](CCCNC(=N)N)C(=O)N[C@@H](C)C(=O)N[C@@H](CS)C(=O)N[C@H](C(=O)N[C@@H](C)C(=O)N[C@@H](C)C(=O)N1CCC[C@H]1C(=O)N[C@@H](CCCNC(=N)N)C(=O)N1CCC[C@H]1C(=O)N[C@@H](CCCNC(=N)N)C(=O)N[C@@H](CO)C(=O)N[C@@H](CCCNC(=N)N)C(=O)N[C@@H](CCC(N)=O)C(=O)N[C@@H](CCCNC(=N)N)C(=O)N[C@@H](C)C(=O)N[C@@H](CO)C(=O)O)C(C)C", "note": "[PF-168] (H-VLPFPAIPLSRRRACVAAPRPRSRQRAS-OH; N-terminus and C-terminus assumed)", "Target(s): form of Candida albicans bound": "yeast cells"}, {"compound": "RLARGRPTNLCGRRG (Antimicrobial peptide and/or targeting peptide) [PF-170]", "Target(s): form of Candida albicans bound": "yeast cells"}, {"compound": "VVRRFQGM (Antimicrobial peptide and/or targeting peptide) [PF-141]", "Target(s): form of Candida albicans bound": "hyphae"}, {"compound": "SKFELVNYASGCSCGADCKCASETECKCASKK (Antimicrobial peptide and/or targeting peptide) [PF-761]", "Target(s): form of Candida albicans bound": "hyphae"}, {"compound": "CC[C@H](C)[C@H](NC(=O)[C@H](CC(N)=O)NC(=O)[C@@H](NC(=O)[C@H](Cc1ccccc1)NC(=O)[C@H](CCC(=O)O)NC(=O)CNC(=O)[C@H](CCC(N)=O)NC(=O)[C@H](Cc1ccccc1)NC(=O)[C@@H](N)CCCCN)[C@@H](C)O)C(=O)NCC(=O)N[C@@H](CCC(N)=O)C(=O)N[C@@H](CO)C(=O)N[C@@H](Cc1ccc(O)cc1)C(=O)N[C@H](C(=O)N[C@H](C(=O)N[C@@H](CO)C(=O)N[C@@H](C)C(=O)N[C@@H](CO)C(=O)N[C@@H](Cc1c[nH]cn1)C(=O)N[C@@H](CCSC)C(=O)N[C@@H](CO)C(=O)N[C@H](C(=O)N[C@@H](CO)C(=O)N[C@@H](CC(C)C)C(=O)N[C@@H](CC(N)=O)C(=O)N[C@H](C(=O)NCC(=O)N[C@@H](CCCCN)C(=O)O)[C@@H](C)O)[C@@H](C)O)C(C)C)[C@@H](C)CC", "note": "[PF-583] (H-KFQGEFTNIGQSYIVSASHMSTSLNTGK-OH; N-terminus and C-terminus assumed)", "Target(s): form of Candida albicans bound": "hyphae"}, {"compound": "MIHLTKQNTMEALHFIKQFYDMFFILNFNV (Antimicrobial peptide and/or targeting peptide) [PF-040]", "Target(s): form of Candida albicans bound": "hyphae"}, {"compound": "AIEGVIKKGACFKLLRHEMF (Antimicrobial peptide and/or targeting peptide) [PF-167]", "Target(s): form of Candida albicans bound": "yeast cells"}, {"compound": "HSSHL (Antimicrobial peptide and/or targeting peptide) [PF-060]", "Target(s): form of Candida albicans bound": "hyphae"}, {"compound": "RFFNFEIKKSTKVDYVFAHVDLSDV (Antimicrobial peptide and/or targeting peptide) [PF-051]", "Target(s): form of Candida albicans bound": "hyphae"}, {"compound": "EVYSSPTNNVAITVQNN (Antimicrobial peptide and/or targeting peptide) [PF-178]", "Target(s): form of Candida albicans bound": "hyphae"}, {"compound": "RLTSNQFLTRITPFVFAQH (Antimicrobial peptide and/or targeting peptide) [PF-176]", "Target(s): form of Candida albicans bound": "yeast cells"}, {"compound": "EILNNNQVIKELTMKYKTQFESNLGGWTARARR (Antimicrobial peptide and/or targeting peptide) [PF-580]", "Target(s): form of Candida albicans bound": "hyphae"}, {"compound": "GGTKEIVYQRG (Antimicrobial peptide and/or targeting peptide) [1T-68]", "Target(s): form of Candida albicans bound": "yeast cells"}, {"compound": "KLRSASKKSLQEKSCGIMPEKPAG (Antimicrobial peptide and/or targeting peptide) [PF-206]", "Target(s): form of Candida albicans bound": "hyphae"}]}]}
